From patent US7407979B2, “Bioregulatory active ingredient combination” (BASF Aktiengesellschaft, priority 2001, dated 2008)

How the values were obtained:
[1] = test system: Winter oilseed rape (cv. Pronto); experiment: Shoot elongation in winter oilseed rape (Example 1); type: in vivo; conditions: treated Oct. 19, 2000; for Stage A1: Reduction / Stage A1: rel. length: rating A1 Oct. 26, 2000; for Stage A2: Reduction / Stage A2: rel. length: rating A2 Nov. 16, 2000
Experimental: The tank mixes employed in Example 1 are prepared by stirring an emulsion concentrate comprising 90 g/l metconazole, of the formula (II), and an aqueous concentrate comprising 600 g/l mepiquat chloride (MQC) using a magnetic stirrer.
Winter oilseed rape (cv. Pronto) was sown in autumn (Sep. 13, 2000) and treated approximately one month later (Oct. 19, 2000) in accordance with the information given in Table 1. A few weeks later, the shoot elongation and the root development were assessed (A1 on Oct. 26, 2000 and A2 on Nov. 16, 2000).

[2] = test system: Winter oilseed rape (cv. Pronto); experiment: Root growth and morphological parameters in winter oilseed rape (Example 2); type: in vivo; conditions: based on untreated control; for SPAD: green coloration
Experimental: The formulations employed in Example 2 are prepared by introducing an emulsion concentrate comprising 60 g/l metconazole, of the formula (II), and/or an aqueous concentrate comprising 460 g/l mepiquat chloride in suitable amounts. The combination of mepiquat chloride and metconazole is employed in the form of an aqueous SL readymix comprising 21 g/l metconazole, 300 g/l mepiquat chloride and 610 g/l further formulation auxiliaries.
Winter oilseed rape (cv. Pronto) was sown in autumn (Sep. 13, 2000) and treated approximately one month later (Oct. 19, 2000) in accordance with the information given in Table 2. Some of the plants were harvested in autumn on Dec. 07, 2000, while others were harvested in spring on Apr. 03, 2001 and the following morphological parameters were analyzed: plant length; shoot fresh and dry weight (drying: 24 h at 105° C.); total area of all leaves; SPAP (relative units of green coloration determined using a Minolta chlorophyll-measuring meter SPAP 502); root fresh and dry weight (drying: 24 h at 105° C.); storage root fresh weight; length, surface area and volume of the hair roots, and number of root tips (scanning and WinRhizo determination). The results, each of which is based on the untreated control, are compiled in Table 2, the values for the plants harvested in autumn being shown first and the values for the plants harvested in spring being shown second.

[3] = 400 g/ha, autumn harvest Dec. 07, 2000
[4] = 400 g/ha, spring harvest Apr. 03, 2001
[5] = 28 g/ha, autumn harvest Dec. 07, 2000
[6] = 28 g/ha, spring harvest Apr. 03, 2001
[7] = 84 g/ha, autumn harvest Dec. 07, 2000
[8] = 84 g/ha, spring harvest Apr. 03, 2001

For `C[N+]1(C)CCCCC1.[Cl-]` [MQC, N,N-dimethylpiperidinium chloride], the “Stage A1: Reduction” value ([1]; 400 g/ha) was 0%, the “Stage A1: rel. length” value ([1]; 400 g/ha) was 100 and the “Stage A2: Reduction” value ([1]; 400 g/ha) was 4%. The “Stage A2: rel. length” value ([1]; 400 g/ha) was 96, the “Hair root surface area” value [2, 3] was 131% and the Hair root volume [2, 3] was 154%. The Leaf surface area [2, 3] was 116%, the “Number of root tips” value [2, 3] was 94% and the Plant height [2, 3] was 96%. For the same molecule, the Root hair length [2, 3] was 112%, the Shoot dry weight [2, 3] was 112% and the Shoot fresh weight [2, 3] was 111%. For the same molecule, the “Storage root fresh weight” value [2, 3] was 118%, the “Total root dry weight” value [2, 3] was 120% and the “Total root fresh weight” value [2, 3] was 123%. The SPAD [2, 3] was 102; 102, the “Hair root surface area” value [2, 4] was 136% and the Hair root volume [2, 4] was 157%. The Leaf surface area [2, 4] was 103%, the “Number of root tips” value [2, 4] was 123% and the Plant height [2, 4] was 93%. For the same molecule, the Root hair length [2, 4] was 123%, the Shoot dry weight [2, 4] was 99% and the Shoot fresh weight [2, 4] was 114%. For the same molecule, the “Storage root fresh weight” value [2, 4] was 94%, the “Total root dry weight” value [2, 4] was 107% and the “Total root fresh weight” value [2, 4] was 112%. The SPAD [2, 4] was 102; 102.
With `CC1(C)CCC(Cc2ccc(Cl)cc2)C1(O)Cn1cncn1` (centres unmarked) [Metconazole, metconazole] the “Stage A1: Reduction” value ([1]; 21 g/ha) was 19%, the “Stage A1: rel. length” value ([1]; 21 g/ha) was 81 and the “Stage A2: Reduction” value ([1]; 21 g/ha) was 39%. The “Stage A2: rel. length” value ([1]; 21 g/ha) was 61, the “Hair root surface area” value [2, 5] was 116% and the Hair root volume [2, 5] was 125%. For the same molecule, the Leaf surface area [2, 5] was 84%, the “Number of root tips” value [2, 5] was 93% and the Plant height [2, 5] was 61%. It also gave a Root hair length [2, 5] of 107%, a Shoot dry weight [2, 5] of 85% and a Shoot fresh weight [2, 5] of 82%. The “Storage root fresh weight” value [2, 5] was 94%, the “Total root dry weight” value [2, 5] was 94% and the “Total root fresh weight” value [2, 5] was 92%. The SPAD [2, 5] was 107, the “Hair root surface area” value [2, 6] was 134% and the Hair root volume [2, 6] was 145%. For the same molecule, the Leaf surface area [2, 6] was 106%, the “Number of root tips” value [2, 6] was 112% and the Plant height [2, 6] was 91%. It also gave a Root hair length [2, 6] of 126%, a Shoot dry weight [2, 6] of 112% and a Shoot fresh weight [2, 6] of 122%. For the same molecule, the “Storage root fresh weight” value [2, 6] was 115%, the “Total root dry weight” value [2, 6] was 128% and the “Total root fresh weight” value [2, 6] was 115%. For the same molecule, the SPAD [2, 6] was 103, the “Hair root surface area” value [2, 7] was 97% and the Hair root volume [2, 7] was 101%. The Leaf surface area [2, 7] was 61%, the “Number of root tips” value [2, 7] was 87% and the Plant height [2, 7] was 46%. The Root hair length [2, 7] was 94%, the Shoot dry weight [2, 7] was 67% and the Shoot fresh weight [2, 7] was 57%. For the same molecule, the “Storage root fresh weight” value [2, 7] was 74%, the “Total root dry weight” value [2, 7] was 75% and the “Total root fresh weight” value [2, 7] was 78%. For the same molecule, the SPAD [2, 7] was 116, the “Hair root surface area” value [2, 8] was 148% and the Hair root volume [2, 8] was 183%. For the same molecule, the Leaf surface area [2, 8] was 127%, the “Number of root tips” value [2, 8] was 116% and the Plant height [2, 8] was 86%. The Root hair length [2, 8] was 129%, the Shoot dry weight [2, 8] was 136% and the Shoot fresh weight [2, 8] was 150%. The “Storage root fresh weight” value [2, 8] was 138%, the “Total root dry weight” value [2, 8] was 161% and the “Total root fresh weight” value [2, 8] was 150%. The SPAD [2, 8] was 104.
